# Reference: patent US10835533B2, “1 -((3S,4R)-4-(3-fluorophenyl)-1-(2-methoxyethyl)pyrrolidin-3-yl)-3-(4-methyl-3-(2-methylpyrimidin-5-yl)-1-phenyl-1H-pyrazol-5-yl)urea as a TrkA kinase inhibitor” (Array BioPharma Inc., priority 2014, dated 2020)
# Assay: Male Sprague Dawley rat pharmacokinetics, oral 10 mg/kg (Example D)
# Format: in vivo
# Conditions: for Plasma:Brain ratio: Rat PO 10 mg/kg, plasma and brain collected 2 hours post dose; for Trough concentration / AUC / Cmax: Rat, oral dose 10 mg/kg, plasma; for AUC / Cmax: male, Sprague Dawley
# Procedure: Each of Compound 1, Compound 2, and Compound 3 was formulated by adding the compound (dry) to 20% Trappsol® (hydroxypropyl Beta cyclodextrin; CDT, Inc.) (aq) pH 5.0 and vortexing until a homogeneous suspension (PO) or solution (IV) was achieved.
# For oral dosing, rats received a single oral dose following an overnight fast. Blood was drawn from the lateral tail vein while the animal was anesthetized with 3% isoflurane balanced with O2 (0.2 mL/timepoint) into NaEDTA tubes (1.5% v/v) at the following time points: 5, 15, and 30 minutes, and 1, 2, 4, 8, 24 and 26 hours, and mixed thoroughly. Following the 24 hour blood collection, animals were redosed orally, and plasma and brain were collected 2 hours post dose for compound analysis. Brains were perefused with saline before removal, weighed and flash frozen in liquid nitrogen until analysis by LCMS/MS. Plasma was separated by centrifugation at 14,000 rpm for 10 minutes and the plasma samples were transferred to 96 well plate tubes with rubber caps and stored at −20±5° C. until analyzed.
# A single 12-point calibration curve was prepared by first serially diluting (3-fold) a 40-μg/mL stock solution of Compound 1, Compound 2, and Compound 3 in DMSO to provide standard solutions. Plasma (20 μL) was then added to the extraction plate, and 2.5 μL of each standard solution was added to the naïve plasma. A stock solution of an internal standard (10.0 μL of 2.5 μg/mL in acetonitrile) subsequently was added to each standard and sample solution. Proteinaceous material was precipitated from 20 μL of plasma with the addition of 317.5 μL of acetonitrile for a total volume of 350 μL. Samples were vortex-mixed for 5 minutes and spun in an Allegra X-12R centrifuge (Beckman Coulter, Fullerton, Calif.) for 15 minutes at approximately 1,500×g at 4° C. A 100-μL aliquot of each supernatant was transferred via a 550 μL Personal Pipettor (Apricot Designs, Monrovia, Calif.) to 96-well plates and diluted 1:1 with HPLC grade water. The resulting plates were sealed with plate mats and the amount of Compound 1n the plasma was analyzed by LC-MS/MS.
# The LC-MS/MS system was comprised of an HTC-PAL autosampler (Leap Technologies, Inc., Carrboro, N.C.), an HP1100 HPLC (Agilent Technologies Inc., Santa Clara, Calif.), and an API4000 triple quadrupole mass spectrometer (Applied Biosystems, Foster City, Calif.). Chromatographic retention of the analyte and internal standard was achieved using a Phenomenex® Synergi 4μ Hydro-RP 80A column (2.1×30 mm, 4 μm particle size; Phenomenex, Torrance, Calif.) in conjunction with gradient conditions using mobile phases A (10 mM ammonium acetate in aqueous 0.1% formic acid and 1% isopropyl alcohol) and B (10 mM ammonium acetate in 89.9% acetonitrile, 10% methanol, 0.1% formic acid). The total run time, including re-equilibration time, for a single injection was 3.5 minutes and the flow rate was 0.8 mL/minute. Solvent B was increased from 5 to 95% in 1.0 minute, held at 95% for 1.0 minute, and then decreased to 5% in 0.1 minute.
# A single 12-point calibration curve was prepared by first serially diluting (3-fold) a 40-μg/mL stock solution of each of Compound 1, Compound 2, and Compound 3 in DMSO. Brain homogenate was prepared by adding 5.0 mL of water to conical 50 mL tubes containing brains. The contents of the tubes were homogenized using an Omni-Prep Multi Sample Homogenizer (Kennesaw, Ga.) at 22,000 RPM for 180 seconds. The homogenate (100 μL) was added to the extraction plate, and 2.5 μL each standard solution was added to the naïve brain homogenate. A stock solution of an internal standard (10.0 μL of 2.5 μg/mL in acetonitrile) subsequently was added to each standard and sample solution. Proteinaceous material was precipitated from 100 μL of […] with the addition of 237.5 μL of acetonitrile for a total volume of 350 μL. […]
Plasma:Brain ratio,Trough concentration [µg/mL],AUC [ng·h/mL],Cmax [ng/mL],SMILES
21,0.00134,2570,1060,"COCCN1C[C@@H](NC(=O)Nc2c(C)c(-c3cnc(C)nc3)nn2-c2ccccc2)[C@H](c2cccc(F)c2)C1 [Compound 1, 1-((3S,4R)-4-(3-fluorophenyl)-1-(2-methoxyethyl)pyrrolidin-3-yl)-3-(4-methyl-3-(2-methylpyrimidin-5-yl)-1-phenyl-1H-pyrazol-5-yl)urea]"
11,0.000446,925,420,"COCCN1C[C@@H](NC(=O)Nc2c(C)c(-c3cnc(C)nc3)nn2-c2ccccc2)[C@H](c2ccc(F)c(F)c2)C1 [Compound 2, 1-((3S,4R)-4-(3,4-difluorophenyl)-1-(2-methoxyethyl)pyrrolidin-3-yl)-3-(4-methyl-3-(2-methylpyrimidin-5-yl)-1-phenyl-1H-pyrazol-5-yl)urea]"
,0.00044,1060,498,"COCCN1C[C@@H](NC(=O)Nc2c(C)c(-c3cnn(C)c3)nn2-c2ccccc2)[C@H](c2ccc(F)cc2)C1 [Compound 3, 1-(1′,4-dimethyl-1-phenyl-1H,1′H-[3,4′-bipyrazol]-5-yl)-3-((3S,4R)-4-(4-fluorophenyl)-1-(2-methoxyethyl)pyrrolidin-3-yl)urea]"
